Experimental findings from patent US20170081357A1, “[…] ACTIVE 17-NITROGEN SUBSTITUTED ESTRATREINTHIAZOLE DERIVATIVES AS INHIBITORS OF 17.BETA-HYDROXYSTEROID DEHYDROGENASE” (FORENDO PHARMA LTD, priority 2013, published 2017) are described below.

SMILES strings stand for the structures.

The nature of the data set: Metabolic stability assay, human liver microsome and homogenate incubations. Conditions: human liver homogenate or microsomes, LC/PDA/TOF-MS. The class given is in vitro ADME. The protocol: The in vitro metabolic stability of the compounds of the invention was determined for exemplified compounds using human liver microsome and homogenate incubations. The incubation time points used with or without appropriate cofactors were 0 min and 60 min. Samples were collected at both time points and substrates were detected using LC/PDA/TOF-MS. In vitro metabolic stability (% remaining after 60 min in human liver homogenate or microsomes) of the compounds were calculated and the results are summarized in Table 3.
For `Cc1cnc(NC(=O)CC[C@@H]2C/C(=N\O)[C@@]3(C)CCC4c5cc(C(C)(C)C)c(O)cc5CCC4C23)s1` (stereo partly drawn) [Compound 58, 3-{(13S,15R)-2-tert-Butyl-3-hydroxy-17-[(E)-hydroxyimino]-13-methyl-7,8,9,11,12,13,14,15,16,17-decahydro-6H-cyclopenta[a]phenanthren-15-yl}-N-(5-methylthiazol-2-yl)propanamide], the “In vitro metabolic stability, % remaining after 60 min” value was determined as 100%.
Then `Cc1cnc(NC(=O)CC[C@@H]2C/C(=N\O)[C@@]3(C)CCC4c5cc(Br)c(O)c(Br)c5CCC4C23)s1` (stereo partly drawn) [Compound 64, 3-{(13S,15R)-2,4-Dibromo-3-hydroxy-17-[(E)-hydroxyimino]-13-methyl-7,8,9,11,12,13,14,15,16,17-decahydro-6H-cyclopenta[a]phenanthren-15-yl}-N-(5-methylthiazol-2-yl)propanamide], with 95%.
To `CO/N=C1\C[C@@H](CCC(=O)Nc2ncc(C)s2)C2C3CCc4cc(O)c(Cl)cc4C3CC[C@]12C` (stereo partly drawn) [Compound 88, 3-{(13S,15R)-2-Chloro-3-hydroxy-17-[(E)-methoxyimino]-13-methyl-7,8,9,11,12,13,14,15,16,17-decahydro-6H-cyclopenta[a]phenanthren-15-yl}-N-(5-methylthiazol-2-yl)propanamide] belongs 94%; to `CO/N=C1\C[C@@H](CCC(=O)Nc2ncc(C)s2)C2C3CCc4cc(O)ccc4C3CC[C@]12C` (stereo partly drawn) [Compound 73, 3-{(13S,15R)-3-Hydroxy-17-[(E)-methoxyimino]-13-methyl-7,8,9,11,12,13,14,15,16,17-decahydro-6H-cyclopenta[a]phenanthren-15-yl}-N-(5-methylthiazol-2-yl)propanamide], 73%; to `Cc1cnc(NC(=O)CC[C@@H]2C/C(=N\O)[C@@]3(C)CCC4c5ccc(O)c(Br)c5CCC4C23)s1` (stereo partly drawn) [Compound 63, 3-{(13S,15R)-4-Bromo-3-hydroxy-17-[(E)-hydroxyimino]-13-methyl-7,8,9,11,12,13,14,15,16,17-decahydro-6H-cyclopenta[a]phenanthren-15-yl}-N-(5-methylthiazol-2-yl)propanamide], 64%.
To `Cc1cnc(NC(=O)CC[C@@H]2C/C(=N\O)[C@@]3(C)CCC4c5cc([N+](=O)[O-])c(O)cc5CCC4C23)s1` (stereo partly drawn) [Compound 60, 3-{(13S,15R)-3-Hydroxy-2-nitro-17-[(E)-hydroxyimino]-13-methyl-7,8,9,11,12,13,14,15,16,17-decahydro-6H-cyclopenta[a]phenanthren-15-yl}-N-(5-methylthiazol-2-yl)propanamide] belongs 84%.
For the molecule `CO/N=C1\C[C@@H](CCC(=O)Nc2ncc(C)s2)C2C3CCc4cc(O)c(Br)cc4C3CC[C@]12C` (stereo partly drawn) [Compound 85, 3-{(13S,15R)-2-Bromo-3-hydroxy-17-[(E)-methoxyimino]-13-methyl-7,8,9,11,12,13,14,15,16,17-decahydro-6H-cyclopenta[a]phenanthren-15-yl}-N-(5-methylthiazol-2-yl)-propanamide], the “In vitro metabolic stability, % remaining after 60 min” value was determined as 34%.
